Test results reported in PubChem BioAssay (NCI).
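Five concentrations, 48 hours, 96-well plates. Abbreviation: GI50, concentration required for 50% inhibition of growth. TGI: total growth inhibition.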

Key:
Test in all cases: NCI tumour cell line growth inhibition, 48 h
NCI-H522 lung = test system: NCI-H522 lung
NCI-H226 lung = test system: NCI-H226 lung
HT29 colon = test system: HT29 colon
786-0 renal = test system: 786-0 renal
COLO 205 colon = test system: COLO 205 colon
MALME-3M melanoma = test system: MALME-3M melanoma
MOLT-4 leukemia = test system: MOLT-4 leukemia
MDA-MB-435 = test system: MDA-MB-435
HS 578T breast = test system: HS 578T breast
MDA-MB-231 breast = test system: MDA-MB-231 breast

Row | SMILES | TGI (NCI-H522 lung) | TGI (NCI-H226 lung) | TGI (HT29 colon) | TGI (786-0 renal) | TGI (COLO 205 colon) | TGI (MALME-3M melanoma) | TGI (MOLT-4 leukemia) | GI50 (NCI-H522 lung) | GI50 (MDA-MB-435) | TGI (MDA-MB-435) | GI50 (HS 578T breast) | TGI (HS 578T breast) | GI50 (HT29 colon) | GI50 (786-0 renal) | GI50 (COLO 205 colon) | GI50 (MALME-3M melanoma) | GI50 (NCI-H226 lung) | TGI (MDA-MB-231 breast) | GI50 (MOLT-4 leukemia) | GI50 (MDA-MB-231 breast)
1 | CC1(C)CCC(=O)c2c(O)ccc(O)c21 | > 100 µM | > 100 µM | > 100 µM | > 100 µM | > 100 µM | > 100 µM | > 100 µM |  |  |  |  |  |  |  |  |  |  |  |  | 
2 | COc1cccc(/C=C(/C(=O)O)c2cc(OC)c(OC)c(OC)c2)c1 | > 100 µM | > 100 µM | > 100 µM | > 100 µM | > 100 µM | > 100 µM | > 100 µM |  |  |  |  |  |  |  |  |  |  |  |  | 
3 | O=c1c(O)c(-c2ccc(O)c(O)c2)oc2cc(O)ccc12 | 45.3 µM | 39.5 µM | 98.8 µM | > 91.5 µM | > 100 µM | > 77 µM | > 72.5 µM |  |  |  |  |  |  |  |  |  |  |  |  | 
4 | CCCCCCCCN(CCCCCCCC)C(=N)c1ccnc2ccccc12 | 2.92 µM |  | 1.06 µM | 2.37 µM | 0.445 µM | 2.59 µM |  | 1.48 µM | 0.302 µM | 1.07 µM | 1.71 µM | 4.81 µM | 0.292 µM | 1.02 µM | 0.2 µM | 1.12 µM |  |  |  | 
5 | Cc1cc(N(CCC#N)CCC#N)ccc1/C=C1/CN(N2C(=O)/C(=C/c3ccc(N(CCC#N)CCC#N)cc3C)N=C2c2ccccc2)C(c2ccccc2)=N1 | > 100 µM | > 100 µM | > 100 µM | > 100 µM | > 100 µM | > 100 µM | > 100 µM |  |  |  |  |  |  |  |  |  |  |  |  | 
6 | Nn1c(CCCl)nc2c(Br)cc(Br)cc2c1=O | 38.5 µM | > 75.1 µM | > 100 µM | 81 µM | 54.1 µM | > 100 µM | 61.3 µM |  |  |  |  |  |  |  |  |  |  |  |  | 
7 | CCOC(=O)C12CCCC1(O)N(NC(=O)c1cccc(Cl)c1)C(C)=C2C(=O)OC (stereo not given) | > 100 µM | > 100 µM | > 100 µM | > 100 µM |  | > 100 µM | > 100 µM |  |  |  |  |  |  |  |  |  |  |  |  | 
8 | OCCN1CCN(CCO)Cc2ccccc2OCCOc2ccccc2C1 | > 100 µM | > 100 µM | > 100 µM | > 100 µM | > 100 µM | > 100 µM | > 100 µM |  |  |  |  |  |  |  |  |  |  |  |  | 
9 | CCc1ccccc1NC(=O)/C(CC(=O)c1c(C)n([O-])c2ccccc2[n+]1=O)=N\NS(=O)(=O)c1ccc(C)cc1 | 47.1 µM | > 100 µM | > 100 µM | > 100 µM | > 100 µM | > 100 µM | 42.6 µM |  |  |  |  |  |  |  |  |  |  |  |  | 
10 | Cc1ccc(-c2csc(N(C(=O)N3CCN(c4cc5c(cc4F)c(=O)c(C(=O)O)cn5C4CC4)CC3)c3ccccc3)n2)cc1 | > 100 µM | > 100 µM |  | 1.83 µM |  |  |  | 0.292 µM |  |  | 0.428 µM | > 100 µM |  | 0.292 µM |  |  | 0.338 µM |  |  | 
11 | O=C(O)C(=O)Cc1ccc2c(c1)OCO2 |  | > 100 µM | > 100 µM | > 100 µM | > 100 µM |  | > 100 µM |  |  | > 100 µM |  |  |  |  |  |  |  | > 100 µM |  | 
12 | COc1ccc2[nH]c3c4c(c5cc(C(C)(C)C)ccc5c3c2c1)C(=O)N(c1ccccc1)C4=O | > 100 µM | > 100 µM | > 100 µM | > 100 µM | > 100 µM | > 100 µM | > 100 µM |  |  |  |  |  |  |  |  |  |  |  |  | 
13 | C/C(=N\O)c1sc(-n2nc(-c3ccccc3)cc2-c2ccccc2)nc1C | 17 µM | 17.6 µM | 19 µM | 15.8 µM |  | 31 µM | 25.5 µM |  |  |  |  |  |  |  |  |  |  |  |  | 
14 | C[C@H](c1ccc(Cl)cc1N)N1C(=O)c2cc(I)ccc2N(CCCN2CCN(C)CC2)C(=O)[C@@H]1c1ccc(Cl)cc1 |  | 2.86 µM | 3.47 µM | 3.37 µM |  | 1.27 µM | 3.59 µM |  | 1.81 µM | 3.57 µM | 1.74 µM | 3.84 µM | 1.82 µM | 1.83 µM |  | 0.242 µM | 1.33 µM | 2.97 µM | 1.75 µM | 1.53 µM
15 | CC1(C)CC23C(=O)N(c4ccccc4)C(=Nc4ccccc4)NC2=CC(C#N)=C(C#N)C3O1 (stereo not given) | > 100 µM | 88.8 µM | > 100 µM | > 100 µM | > 100 µM | > 100 µM | > 100 µM |  |  |  |  |  |  |  |  |  |  |  |  | 
16 | CC(=O)CC(=O)N(CCN(C(=O)CC(C)=O)c1ccccc1)c1ccccc1 | > 100 µM | > 100 µM |  | > 100 µM | > 100 µM | > 100 µM | > 100 µM |  |  |  |  |  |  |  |  |  |  |  |  | 
17 | O=C1c2ccccc2C(=O)N1/N=C\c1ccc(Br)cc1 | > 100 µM | > 100 µM | > 100 µM | > 100 µM | > 100 µM | > 100 µM | > 100 µM |  |  |  |  |  | > 100 µM | > 100 µM |  | > 100 µM | > 100 µM |  | > 100 µM | 
18 | C=C(C)C1CC=C(C(=O)O)CC1 (stereo not given) | 1830 µM | 2590 µM | > 5000 µM | 4700 µM | 1620 µM | 1630 µM | > 5000 µM |  |  |  |  |  |  |  |  |  |  |  |  | 
19 | COc1cc(C(=O)C/C(CCC(=O)Nc2ccccc2[N+](=O)[O-])=N\NC(=O)C(N)=O)ccc1O |  | > 100 µM | > 100 µM | > 100 µM | > 100 µM |  | > 100 µM |  |  |  |  |  |  |  |  |  |  |  |  | 
20 | CCCCCCCCCOC(=S)NC | 31.2 µM |  | 42.2 µM | 33.5 µM | 49.2 µM | 43.8 µM | 46.5 µM |  |  |  |  |  |  |  |  |  |  |  |  | 
21 | CC(C)(Cl)CCC1=C(Cl)C(=O)c2ccccc2C1=O | 1.91 µM | 14.5 µM | 31.5 µM | 10.7 µM | 4.12 µM |  | 6.04 µM | 0.586 µM | 2.15 µM | 4.62 µM | 3.26 µM | 45.8 µM | 15.6 µM | 3.41 µM | 2.07 µM |  | 3.38 µM | 3.65 µM | 1.91 µM | 1.73 µM
22 | CC(C)C1C(=O)N2CCCC2C2(O)OC(NC(=O)C3C=C4c5cccc6[nH]cc(c56)CC4N(C)C3)(C(C)C)C(=O)N12 (stereo not given) | 74.5 µM |  | 37.5 µM | 33 µM | 51.5 µM |  | 53.8 µM |  |  | > 100 µM |  | > 100 µM |  |  |  |  |  | 34.3 µM |  | 
23 | CON(C)C(=O)C(Cc1ccccc1)NC(=O)OC(C)(C)C (stereo not given) |  | > 100 µM | > 100 µM | > 100 µM | > 100 µM | > 100 µM | > 100 µM |  |  | > 100 µM |  | > 100 µM |  |  |  |  |  |  |  | 
